# Laboratory results reported in patent US10064913B2, “Immunotherapy against several tumors including gastrointestinal and gastric cancer” (IMMATICS BIOTECHNOLOGIES GMBH, priority 2010, dated 2018).
# How the values were obtained:
# CD8+ T cells [1] = assay: In vitro immunogenicity of HLA-A*2402 restricted TUMAPs (aAPC priming of CD8+ T cells, multimer staining); type: cell-based, human; settings: HLA-A*2402 peptides, CD8+ T cells of healthy HLA-A*24 donors, three stimulation cycles with pMHC/anti-CD28 beads; for Wells positive/evaluable [%]: at least 48 wells evaluable; for Donors positive/evaluable [%]: at least four donors evaluable
# Source text: (§1) In order to perform in vitro stimulations by artificial antigen presenting cells (aAPC) loaded with peptide-MHC complex (pMHC) and anti-CD28 antibody, we first isolated CD8 T cells from fresh HLA-A*24 leukapheresis products or from HLA-A*2 buffy coats of healthy donors obtained from the Blood Bank Tuebingen.
# (§2) CD8 T cells were either directly enriched or PBMCs (peripheral blood mononuclear cells) were isolated first by using standard gradient separation medium (PAA, Colbe, Germany). Isolated CD8 lymphocytes or PBMCs were incubated until use in T-cell medium (TCM) consisting of RPMI-Glutamax (Invitrogen, Karlsruhe, Germany) supplemented with 10% heat inactivated human AB serum (PAN-Biotech, Aidenbach, Germany), 100 U/ml Penicillin/100 μg/ml Streptomycin (Cambrex, Cologne, Germany), 1 mM sodium pyruvate (CC Pro, Oberdorla, Germany), 20 μg/ml Gentamycin (Cambrex). […] Isolation of CD8+ lymphocytes was performed by positive selection using CD8 MicroBeads (Miltenyi Biotec, Bergisch-Gladbach, Germany).
# (§3) 800.000 beads/200 μl were coated in 96-well plates in the presence of 600 ng biotin-anti-CD28 plus 200 ng relevant biotin-pMHC (high density beads). […] Half of the medium was then exchanged by fresh TCM supplemented with 80 U/ml IL-2 and incubation was continued for 3-4 days at 37° C. This stimulation cycle was performed for a total of three times.
# (§4) In vitro priming of specific multimer+CD8+ lymphocytes was detected by appropriate gating and by comparing to negative control stimulations.
# CD8+ T cells [2] = assay: In vitro immunogenicity of HLA-A*0201 restricted TUMAPs (aAPC priming of CD8+ T cells, multimer staining); type: cell-based, human; settings: HLA-A*0201 peptides, CD8+ T cells from HLA-A*2 buffy coats of healthy donors, three stimulation cycles
# Source text: as §1, §2, §3, §4
# [3] = peptide included in vaccines IMA901 and IMA910, described in other applications by immatics; cited from earlier work
Sequence,Wells positive/evaluable [%] (CD8+ T cells [1]),Donors positive/evaluable [%] (CD8+ T cells [1]),Donors positive/evaluable [%] (CD8+ T cells [2]),Wells positive/evaluable [%] (CD8+ T cells [2]),in vivo reactions [3]
AYAIIKEEL (listed as Homo sapiens) [ATAD2-001],3%,33%,,,
AYLVYTDRL (listed as Homo sapiens) [PPAP2C-001],29%,83%,,,
AYPTVKFYF (listed as Homo sapiens) [DNAJC10-002],3%,33%,,,
DYAYLREHF (listed as Homo sapiens) [ZNF598-001],17%,83%,,,
DYTIGFGKF (listed as Homo sapiens) [ITGB4-001],20%,67%,,,
FYISPVNKL (listed as Homo sapiens) [AVL9-001],31%,100%,,,
FYQPKIQQF (listed as Homo sapiens) [FANCI-001],1%,17%,,,
HYKPTPLYF (listed as Homo sapiens) [SMC4-001],10%,73%,,,
IFSKIVSLF (listed as Homo sapiens) [EIF2S3-001],1%,17%,,,
IYAPKLQEF (listed as Homo sapiens) [CCNE2-001],0%,0%,,,
IYLEVIHNL (listed as Homo sapiens) [DNAJC10-001],15%,50%,,,
IYNGKLFDLL (listed as Homo sapiens) [KIF2C-001],2%,17%,,,
IYPDASLLI (listed as Homo sapiens) [CEA-010],3%,40%,,,
KIFDEILVNA (listed as Homo sapiens) [TOP-001],,,40%,10%,
KIQEILTQV (listed as Homo sapiens) [IGF2BP3-001],,,50%,21%,
KYLTVKDYL (listed as Homo sapiens) [ATAD2-002],1%,17%,,,
KYNDTFWKEF (listed as Homo sapiens) [HSP90B1-001],7%,50%,,,
LYLENIDEF (listed as Homo sapiens) [POLD3-001],7%,67%,,,
LYPEVFEKF (listed as Homo sapiens) [ATAD2-003],0%,0%,,,

Sequence,Wells positive/evaluable [%] (CD8+ T cells [1]),Donors positive/evaluable [%] (CD8+ T cells [1]),Donors positive/evaluable [%] (CD8+ T cells [2]),Wells positive/evaluable [%] (CD8+ T cells [2]),in vivo reactions [3]
LYQILQGIVF (listed as Homo sapiens) [CDC2-001],28%,83%,,,
MYMTVSIIDRF (listed as Homo sapiens) [CCNB1-003],3%,33%,,,
NYEETFPHI (listed as Homo sapiens) [MUC6-001],22%,83%,,,
NYLLYVSNF (listed as Homo sapiens) [MST1R-001],13%,50%,,,
NYLPFIMEL (listed as Homo sapiens) [UCHL5-001],12%,75%,,,
QYASRFVQL (listed as Homo sapiens) [PLK4-001],5%,60%,,,
QYIDKLNEL (listed as Homo sapiens) [CCDC88A-001],0%,0%,,,
RFLSGIINF (listed as Homo sapiens) [NUF2-002],6%,50%,,,
RYLEGTSCI (listed as Homo sapiens) [EPPK1-001],1%,17%,,,
RYLPKGFLNQF (listed as Homo sapiens) [PTK2-001],4%,17%,,,
RYLPQCSYF (listed as Homo sapiens) [CCND2-001],10%,17%,,,
RYLWATVTI (listed as Homo sapiens) [ASPM-001],3%,17%,,,
SYATLLHVL (listed as Homo sapiens) [GPR39-001],6%,50%,,,
SYIDVLPEF (listed as Homo sapiens) [MET-006],21%,67%,,,
SYIIDPLNL (listed as Homo sapiens) [PROM1-001],26%,83%,,,
SYLELVKSL (listed as Homo sapiens) [SDHC-001],3%,33%,,,
SYLQAANAL (listed as Homo sapiens) [COL6A3-001],0%,0%,,,
SYNPLWLRI (listed as Homo sapiens) [ASPM-002],32%,67%,,,
SYNVTSVLF (listed as Homo sapiens) [LCN2-001],1%,17%,,,

Sequence,Wells positive/evaluable [%] (CD8+ T cells [1]),Donors positive/evaluable [%] (CD8+ T cells [1]),Donors positive/evaluable [%] (CD8+ T cells [2]),Wells positive/evaluable [%] (CD8+ T cells [2]),in vivo reactions [3]
SYQKVIELF (listed as Homo sapiens) [PBK-001],0%,0%,,,
TYGNLLDYL (listed as Homo sapiens) [ABL1-001],18%,83%,,,
VFDTAIAHLF (listed as Homo sapiens) [SIAH2-001],8%,50%,,,
VFIFKGNQF (listed as Homo sapiens) [MMP3-001],1%,11%,,,
VWSDVTPLTF (listed as Homo sapiens) [MMP11-001],11%,33%,,,
VYFSKSEQL (listed as Homo sapiens) [EPHA2-005],0%,0%,,,
VYGIRLEHF (listed as Homo sapiens) [NUF2-001],50%,100%,,,
VYIEKNDKL (listed as Homo sapiens) [ERBB3-001],,83%,,,
VYISSLALL (listed as Homo sapiens) [PSMD14-001],1%,17%,,,
VYKVVGNLL (listed as Homo sapiens) [IQGAP3-001],24%,100%,,,
VYLLNSTTL (listed as Homo sapiens) [CLCN3-001],6%,33%,,,
VYNPTPNSL (listed as Homo sapiens) [COL12A1-001],0%,0%,,,
VYPNWAIGL (listed as Homo sapiens) [SLC6A6-001],1%,17%,,,
VYTTMAEHF (listed as Homo sapiens) [TSPAN1-002],1%,17%,,,
VYTTSYQQI (listed as Homo sapiens) [NFYB-001],7%,50%,,,
YVDPVITSI (listed as Homo sapiens) [MET-001],,,67%,42%,extremely good in vivo reactions
YYKNIGLGF (listed as Homo sapiens) [RPS11-001],3%,17%,,,
YYNAAGFNKL (listed as Homo sapiens) [UQCRB-001],24%,83%,,,
YYYVGFAYL (listed as Homo sapiens) [EIF3L-001],29%,100%,,,
